Series [1] has as its target T1, Cannabinoid receptor 1 (Homo sapiens, UniProt P21554). In words: Displacement of [3H]CP55940 from human CB1 receptor expressed in CHO-K1 cell membrane by competitive displacement assay. In kind it is cell membranes. In general terms: In a radioligand displacement assay an active substance lowers the binding of a labelled ligand.
Series [2] deals with T2, Cannabinoid receptor 2 (Homo sapiens, UniProt P34972). Briefly: Displacement of [3H]CP55940 from human CB2 receptor expressed in CHO-K1 cell membrane by competitive displacement assay. In kind it is cell membranes.
T2 sequence (P34972 whole entry): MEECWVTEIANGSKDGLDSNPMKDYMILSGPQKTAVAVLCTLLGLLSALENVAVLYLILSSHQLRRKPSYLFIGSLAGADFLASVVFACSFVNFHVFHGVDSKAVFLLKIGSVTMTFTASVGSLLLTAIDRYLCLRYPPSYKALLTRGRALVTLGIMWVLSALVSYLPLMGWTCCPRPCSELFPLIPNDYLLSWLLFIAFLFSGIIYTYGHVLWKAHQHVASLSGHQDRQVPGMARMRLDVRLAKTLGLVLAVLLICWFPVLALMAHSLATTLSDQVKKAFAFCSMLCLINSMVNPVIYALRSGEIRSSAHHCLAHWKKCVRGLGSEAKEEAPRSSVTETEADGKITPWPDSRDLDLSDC
Series [3] is filed under the species Homo sapiens. In words: Selectivity ratio of Ki for human CB1 receptor to Ki for human CB2 receptor.
Series [4] addresses T2, Cannabinoid receptor 2. Briefly: Agonist activity at human CB2 receptor expressed in CHO-K1 cells assessed as inhibition of forskolin-stimulated cAMP production. In kind it is functional, cell-based. Background: Changes in cAMP serve as a functional read-out for many G protein-coupled receptors.
Series [5] in a line: Antioxidant activity assessed as inhibition of lipid peroxidation. In kind it is physicochemical.
Series [6] deals with T1, Cannabinoid receptor 1. In words: Agonist activity at human CB1 receptor expressed in CHO-K1 cells assessed as inhibition of forskolin-stimulated cAMP production. In kind it is functional, cell-based.
Series [7] is filed under the species Homo sapiens. Briefly: Selectivity ratio of EC50 for human CB1 receptor to EC50 for human CB2 receptor.

T1 sequence (P21554 whole entry): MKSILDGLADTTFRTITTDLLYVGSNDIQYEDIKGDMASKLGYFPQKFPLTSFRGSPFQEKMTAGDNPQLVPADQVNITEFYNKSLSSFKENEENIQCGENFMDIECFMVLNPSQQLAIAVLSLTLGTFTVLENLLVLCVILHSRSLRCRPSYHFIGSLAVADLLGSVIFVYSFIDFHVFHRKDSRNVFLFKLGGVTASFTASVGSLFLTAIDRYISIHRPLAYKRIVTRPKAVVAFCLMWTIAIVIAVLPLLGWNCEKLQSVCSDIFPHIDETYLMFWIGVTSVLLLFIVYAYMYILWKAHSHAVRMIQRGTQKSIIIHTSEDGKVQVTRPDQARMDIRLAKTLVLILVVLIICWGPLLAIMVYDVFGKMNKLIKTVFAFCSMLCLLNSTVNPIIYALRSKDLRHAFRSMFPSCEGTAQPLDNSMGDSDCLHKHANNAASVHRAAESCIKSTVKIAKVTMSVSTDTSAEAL

As for `CC(C)(C)c1cc(-c2csc(C3(N4CCOCC4)CCOCC3)n2)cc(C(C)(C)C)c1O`, the figures for the Ki result at Cannabinoid receptor 1 [1] (cho-k1) and at Cannabinoid receptor 2 [2] were “Not Active” and 177 nM, respectively.
Turning to `CN(C)C1(c2nc(-c3cc(C(C)(C)C)cc(C(C)(C)C)c3)cs2)CCOCC1`, the figures for the Ki at Cannabinoid receptor 1 [1] (read-out: Ki) and at Cannabinoid receptor 2 [2] were 4710 nM and 127 nM, respectively. Moreover, the Selectivity ratio in the series listed under Homo sapiens [3] was 37.
With `CN(C)C1(c2nc(-c3cc(C(C)(C)C)c(O)c(C(C)(C)C)c3)cs2)CCOCC1`, the values for the EC50 on Cannabinoid receptor 2 [4] and at Cannabinoid receptor 1 [6] were 42 nM and 2670 nM, respectively. Further, the Ki stood at 857 nM at Cannabinoid receptor 1 [1] (read-out: Ki) and 29.4 nM on Cannabinoid receptor 2 [2]. Also, the Selectivity ratio in the series listed under Homo sapiens [3] is 30; in the series listed under Homo sapiens [7], 64. Also, the IC50 in series [5] is 500 nM.
Turning to `CN(C)C1(c2nc(-c3cc(C(C)(C)C)c(O)c(C(C)(C)C)c3)co2)CCOCC1`, the EC50 was 43.6 nM on Cannabinoid receptor 2 [4] and 1400 nM on Cannabinoid receptor 1 [6]. Also, the values for the Ki at Cannabinoid receptor 1 [1] (read-out: Ki) and on Cannabinoid receptor 2 [2] were 817 nM and 51.6 nM, respectively. Further, the Selectivity ratio was found to be 16 in the series listed under Homo sapiens [3] and 32 in the series filed under Homo sapiens [7].
Take `CN1CCCCC1Cn1cc(C(=O)c2cc([N+](=O)[O-])ccc2I)c2ccccc21` (stereo not given): the EC50 is 16.4 nM on Cannabinoid receptor 2 [4] and 1040 nM on Cannabinoid receptor 1 [6]. Besides, the Ki came out at 2080 nM at Cannabinoid receptor 1 [1] (read-out: Ki) and 21.8 nM at Cannabinoid receptor 2 [2]. Also, the results for the Selectivity ratio in the series listed under Homo sapiens [3] and in the series filed under Homo sapiens [7] were 95 and 63, respectively.
Regarding `CCN(CC)C1(c2nc(-c3cc(C(C)(C)C)c(O)c(C(C)(C)C)c3)cs2)CCOCC1`, the EC50 at Cannabinoid receptor 2 [4] turned out to be 72 nM; on Cannabinoid receptor 1 [6] it was 4040 nM. Moreover, the Ki on Cannabinoid receptor 1 [1] (read-out: Ki) was determined as 3300 nM; on Cannabinoid receptor 2 [2], 77.4 nM. The figures for the Selectivity ratio in the series filed under Homo sapiens [3] and in the series filed under Homo sapiens [7] were 43 and 56, respectively.
Regarding `CC(C)(C)c1cc(-c2csc(C3(N4CCCCC4)CCOCC3)n2)cc(C(C)(C)C)c1O`, the EC50 on Cannabinoid receptor 2 [4] is 40 nM; on Cannabinoid receptor 1 [6], 2260 nM. Besides, the Ki on Cannabinoid receptor 1 [1] (read-out: Ki) was 2170 nM; on Cannabinoid receptor 2 [2], 49.7 nM. The values for the Selectivity ratio in the series filed under Homo sapiens [3] and in the series filed under Homo sapiens [7] were 43 and 56, respectively.
Take `CC(C)(C)c1cc(-c2csc(C3(N)CCOCC3)n2)cc(C(C)(C)C)c1O`: the Ki at Cannabinoid receptor 1 [1] (read-out: Ki) stood at 6960 nM; at Cannabinoid receptor 2 [2], 2700 nM. Besides, the Selectivity ratio in the series filed under Homo sapiens [3] was found to be 2.6.
`CN(C)C1(c2nc(-c3cc(C(C)(C)C)c(O)c(C(C)(C)C)c3)cs2)CCSCC1`: the EC50 on Cannabinoid receptor 2 [4] worked out at 59.1 nM; at Cannabinoid receptor 1 [6], 2380 nM. For the same compound, the Ki at Cannabinoid receptor 1 [1] (read-out: Ki) turned out to be 2340 nM; at Cannabinoid receptor 2 [2] it was 81.7 nM. Further, the Selectivity ratio is 29 in the series filed under Homo sapiens [3] and 40 in the series listed under Homo sapiens [7].
As for `CNC1(c2nc(-c3cc(C(C)(C)C)c(O)c(C(C)(C)C)c3)cs2)CCOCC1`, the Ki on Cannabinoid receptor 1 [1] (read-out: Ki) was found to be 2270 nM; at Cannabinoid receptor 2 [2] it was 144 nM. For the same compound, the Selectivity ratio in the series filed under Homo sapiens [3] worked out at 16.
In the case of `CN(C)Cc1nc(-c2cc(C(C)(C)C)c(O)c(C(C)(C)C)c2)cs1`, the Ki entry on Cannabinoid receptor 1 [1] (cho-k1) was “Not Active”; on Cannabinoid receptor 2 [2], 6240 nM.

As usually defined, the Ki is a dissociation constant, usually derived from enzyme kinetics or from competition with a known ligand. One may read the EC50 as the concentration needed to bring the measured effect to its halfway point. By IC50 is commonly meant the point on the concentration scale where inhibition reaches its midpoint.

The values are drawn from ChEMBL document CHEMBL3580586, “Novel azoles as potent and selective cannabinoid CB2 receptor agonists” (Bioorg Med Chem Lett, 2014).
